In ChEMBL document CHEMBL1201862, “PubChem BioAssay data set” (2004):
The source made the active and inactive calls.

How the values were obtained:
[1] = biological target: T1, Mitochondrial peptide methionine sulfoxide reductase (Bos taurus, UniProt P54149); experiment: Absorbance-based biochemical high throughput dose response assay for activators of Methionine sulfoxide reductase A (MsrA).; type: functional
[2] = biological target: ADP-ribosylation factor GTPase-activating protein 1 (Rattus norvegicus, UniProt Q62848); experiment: Fluorescence polarization-based biochemical high throughput dose response screening assay to identify inhibitors of ADP-ribosylation factor GTPase activating protein 1 (ARFGAP1).; type: functional
[3] = biological target: T2, Carboxy-terminal domain RNA polymerase II polypeptide A small phosphatase 1 (Homo sapiens, UniProt Q9GZU7); experiment: inhibitors of CTDSP1, concentration-response testing, biochemical assay, absorbance-based, actives from ultra-high-throughput screening (AID 540297); type: functional
T2 sequence (Q9GZU7 whole entry): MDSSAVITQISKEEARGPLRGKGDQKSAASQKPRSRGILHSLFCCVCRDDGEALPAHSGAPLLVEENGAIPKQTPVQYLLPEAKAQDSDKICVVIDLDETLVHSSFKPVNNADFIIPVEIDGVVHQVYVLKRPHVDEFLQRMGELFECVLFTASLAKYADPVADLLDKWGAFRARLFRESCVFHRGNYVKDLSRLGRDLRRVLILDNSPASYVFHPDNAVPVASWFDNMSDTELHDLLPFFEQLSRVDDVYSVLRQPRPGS

[4] = biological target: Neurotensin receptor type 1 (Homo sapiens, UniProt P30989); type: functional;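 note: Image-based confirmatory dose-response assay measuring agonist activity at NTR1; NTR1-expressing U2OS osteosarcoma cells imaged for beta-arrestin GFP spot formation; agonist potency where compounds increase beta-arrestin recruitment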
[5] = cytotoxicity toward NIH3T3 fibroblasts, dose response, counter-screen, cell-based, ATP luminescence, mouse fibroblasts (AID 2010); type: functional;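 note: cells exposed to compound for about 90 hours before reading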
[6] = inhibitors of intracellular T. cruzi replication, confirmation, NIH3T3 host cells, beta-gal luminescence (AID 2044); type: functional, cell-based;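 note: intracellular parasites grown in NIH/3T3 mouse fibroblasts as host cells; luminescent beta-galactosidase reporter signal from transgenic T. cruzi replicating inside host cells; inhibitors lower the luminescence signal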
[7] = biological target: T3, Ubiquitin-conjugating enzyme E2 N (Homo sapiens, UniProt P61088); type: functional;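 note: Dose-response confirmation in a TR-FRET assay detecting UBC13-driven polyubiquitin chain formation, inhibition measured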
T3 sequence (P61088 whole entry): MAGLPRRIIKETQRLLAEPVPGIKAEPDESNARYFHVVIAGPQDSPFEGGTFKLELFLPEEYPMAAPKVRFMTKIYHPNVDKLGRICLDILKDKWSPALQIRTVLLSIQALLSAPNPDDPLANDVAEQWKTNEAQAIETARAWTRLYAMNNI

[8] = biological target: Melanocortin receptor 4 (Homo sapiens, UniProt P32245); type: functional, cell-based;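 note: Cell-based assay with luminescence read-out, confirmatory dose-response testing for agonist activity of biased ligands at MC4R; human U2OS cells with tagged receptor and beta-arrestin; potency of agonists that increase receptor coupling to beta-arrestin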
[9] = biological target: T4, Sentrin-specific protease 1 (Homo sapiens, UniProt Q9P0U3); experiment: potency of human SENP1 inhibitors, dose response, biochemical, kinetic FRET (AID 651697); type: functional; settings: read-out: IC50_Mean
[10] = biological target: T4, Sentrin-specific protease 1; experiment: Dose response confirmation of small molecule inhibitors of the catalytic domain of the SUMO protease, SENP1 in a FRET assay.; type: functional; settings: read-out: IC50_Mean
[11] = ARNT/TACC3 interaction disruptors, potency, confirmation, biochemical, AlphaScreen, cherry-picked samples (AID 651703); type: functional, Homo sapiens;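 note: His-tagged ARNT PAS-B domain paired with GST-TACC3 E629A dimer coactivator fragment; potency of inhibitors that break up the complex and lower AlphaScreen signal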
[12] = AlphaScreen signal interference compounds, dose response, artefact control for ARNT-TACC3 interaction inhibitor project, biochemical, luminescence, cherry-pick (AID 651705); type: functional;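 note: AlphaScreen bead proximity signal that flags compounds interfering with the detection technology; potency reflects signal decrease which marks the compound as an assay artifact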
[13] = biological target: Hepatocyte nuclear factor 4-alpha (Homo sapiens, UniProt P41235); type: functional, cell-based;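 note: biochemical luminescence-based dose-response counterscreen measuring inhibition of HNF4 dimerization, run alongside a screen for blockers of ABHD5–perilipin-5 interaction; split luciferase complementation of HNF4 fusion proteins in cell lysate measuring dimerization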
[14] = biological target: Cytochrome P450 2D6 (Homo sapiens, UniProt P10635);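 note: CYP2D6 member of a cytochrome P450 panel assay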
[15] = control 3'UTR Renilla luciferase suppression, dose response, counter-screen for Shn3 inhibitor project, cell-based, Clone20-Shn3RL, cherry-picked (AID 624133); type: functional
[16] = biological target: Protein Wnt-3a (Mus musculus, UniProt P27467); experiment: Wnt3a-driven reporter signaling inhibition, dose response, selectivity assay for Gli-SUFU antagonist project, Wnt-LIGHT cells, luminescence (AID 651570); type: functional; settings: read-out: IC50_Mean;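 note: Wnt-LIGHT reporter cells stimulated with conditioned medium from Wnt3a-producing cells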
[17] = HepG2 cell cytotoxicity, dose response, cytotoxicity control for Shn3 inhibitor project, CellTiter-Glo, cherry-picked (AID 624134); type: functional, cell-based
[18] = Shn3 3'UTR reporter inhibitors, dose response, cell-based, Clone20 osteoblasts, firefly luciferase, cherry-picked (AID 624132); type: functional;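 note: firefly luciferase luminescence from reporter carrying the Shn3 3'UTR in osteoblasts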
[19] = HeLa cell cytotoxicity, dose response, cytotoxicity control for MgcRacGAP inhibitor project (AID 624300); type: functional
[20] = biological target: DNA (cytosine-5)-methyltransferase 1 (Homo sapiens, UniProt P26358); experiment: DNMT1 methyltransferase inhibitors, confirmation, biochemical, fluorescent molecular beacon (AID 602386); type: functional
[21] = biological target: T5, Rac GTPase-activating protein 1 (Homo sapiens, UniProt Q9H0H5); experiment: MgcRacGAP GTPase-activating activity inhibitors, confirmation, biochemical, ADP Hunter fluorescence, primary and confirmatory (AID 624330); type: functional
T5 sequence (Q9H0H5 whole entry): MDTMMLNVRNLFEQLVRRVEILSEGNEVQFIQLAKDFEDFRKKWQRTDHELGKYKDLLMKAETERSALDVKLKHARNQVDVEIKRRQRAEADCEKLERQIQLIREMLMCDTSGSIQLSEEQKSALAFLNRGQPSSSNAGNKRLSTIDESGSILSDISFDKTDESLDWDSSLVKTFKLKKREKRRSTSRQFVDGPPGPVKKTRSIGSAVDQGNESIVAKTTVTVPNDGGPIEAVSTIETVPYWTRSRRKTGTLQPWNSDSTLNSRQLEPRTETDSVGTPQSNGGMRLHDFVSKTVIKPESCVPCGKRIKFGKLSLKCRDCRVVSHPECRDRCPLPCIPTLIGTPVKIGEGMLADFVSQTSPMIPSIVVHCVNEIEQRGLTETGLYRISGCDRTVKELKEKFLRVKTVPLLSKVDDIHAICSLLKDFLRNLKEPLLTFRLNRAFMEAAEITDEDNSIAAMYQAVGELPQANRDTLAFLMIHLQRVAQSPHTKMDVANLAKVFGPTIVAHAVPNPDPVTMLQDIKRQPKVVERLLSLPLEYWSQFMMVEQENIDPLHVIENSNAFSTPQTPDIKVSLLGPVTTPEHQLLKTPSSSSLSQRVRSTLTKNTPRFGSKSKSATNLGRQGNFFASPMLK

[22] = biological target: T1, Mitochondrial peptide methionine sulfoxide reductase; type: functional
[23] = biological target: Potassium voltage-gated channel subfamily KQT member 2 (Rattus norvegicus, UniProt O88943); experiment: KCNQ2 potassium channel inhibitors, dose response, cell-based, automated electrophysiology, set II, rat KCNQ2 (AID 588637); type: functional
[24] = system: Streptococcus; experiment: Group A Streptococcus viability loss, dose response, counter-screen for streptokinase expression inhibitor project, luminescence, BacTiterGlo (AID 1915); type: functional, organism-based;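 note: potency for reduction of bacterial viability or growth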
[25] = biological target: Photoreceptor-specific nuclear receptor (Homo sapiens, UniProt Q9Y5X4); type: functional, cell-based;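 note: CHO-S cells with Gal4-NCOR and VP16-NR2E3 two-hybrid luciferase reporter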
[26] = system: Streptococcus sp. 'group A'; experiment: growth inhibition of control SK(-) GAS strain, dose response, counter-screen for streptokinase expression inhibitor project, luminescence, kanamycin, BacTiterGlo, confirmation (AID 1900); type: functional, organism-based
[27] = biological target: T6, Streptokinase A (Streptococcus pyogenes serotype M1, UniProt P10520); experiment: S. pyogenes streptokinase expression inhibitors, potency, dose response, plasminogen activation absorbance, OD405 (AID 1914); type: functional, Streptococcus pyogenes M1 GAS;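 note: secreted streptokinase activity via plasminogen activation per viability signal from cell pellet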
T6 sequence (P10520 whole entry): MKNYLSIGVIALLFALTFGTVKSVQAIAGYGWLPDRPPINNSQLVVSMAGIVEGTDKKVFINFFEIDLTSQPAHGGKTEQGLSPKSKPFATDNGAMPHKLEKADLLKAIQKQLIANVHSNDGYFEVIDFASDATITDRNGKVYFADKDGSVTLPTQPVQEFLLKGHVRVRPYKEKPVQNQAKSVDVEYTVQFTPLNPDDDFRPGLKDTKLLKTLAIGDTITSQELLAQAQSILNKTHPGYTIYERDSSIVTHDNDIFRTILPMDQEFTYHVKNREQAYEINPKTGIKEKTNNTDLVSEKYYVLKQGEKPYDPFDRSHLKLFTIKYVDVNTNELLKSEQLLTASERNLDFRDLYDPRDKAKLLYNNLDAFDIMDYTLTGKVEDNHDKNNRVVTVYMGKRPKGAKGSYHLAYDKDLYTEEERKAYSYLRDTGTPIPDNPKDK

[28] = biological target: ATP-dependent translocase ABCB1 (Homo sapiens, UniProt P08183); experiment: ABCB1 efflux pump inhibitor potency, dose response, Jurkat-DNR cells, JC-1, flow cytometry (AID 1689); type: functional

T1 sequence (P54149 whole entry): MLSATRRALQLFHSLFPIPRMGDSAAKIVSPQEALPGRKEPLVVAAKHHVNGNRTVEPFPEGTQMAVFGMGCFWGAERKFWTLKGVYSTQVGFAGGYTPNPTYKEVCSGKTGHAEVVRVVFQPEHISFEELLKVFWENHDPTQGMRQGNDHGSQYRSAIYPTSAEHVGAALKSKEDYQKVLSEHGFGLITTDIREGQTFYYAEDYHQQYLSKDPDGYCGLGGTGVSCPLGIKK
T4 sequence (Q9P0U3 whole entry, the tested form may be a part): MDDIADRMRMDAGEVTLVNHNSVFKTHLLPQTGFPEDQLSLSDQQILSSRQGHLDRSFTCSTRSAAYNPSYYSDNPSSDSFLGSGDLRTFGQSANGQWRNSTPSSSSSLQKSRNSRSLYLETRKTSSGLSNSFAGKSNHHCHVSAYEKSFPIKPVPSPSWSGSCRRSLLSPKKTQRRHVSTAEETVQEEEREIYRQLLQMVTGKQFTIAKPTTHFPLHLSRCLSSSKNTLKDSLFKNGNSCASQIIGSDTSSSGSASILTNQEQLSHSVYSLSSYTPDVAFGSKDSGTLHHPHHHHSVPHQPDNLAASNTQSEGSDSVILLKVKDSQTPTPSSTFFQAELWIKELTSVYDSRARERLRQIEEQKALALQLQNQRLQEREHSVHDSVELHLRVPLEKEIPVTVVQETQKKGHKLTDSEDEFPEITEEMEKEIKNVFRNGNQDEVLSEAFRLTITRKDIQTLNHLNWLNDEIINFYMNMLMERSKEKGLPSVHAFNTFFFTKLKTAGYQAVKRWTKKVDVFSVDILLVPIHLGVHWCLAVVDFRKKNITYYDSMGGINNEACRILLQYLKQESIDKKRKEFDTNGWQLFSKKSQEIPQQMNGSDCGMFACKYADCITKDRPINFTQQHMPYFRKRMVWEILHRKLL
Sequence of Hepatocyte nuclear factor 4-alpha (P41235 whole entry, the tested form may be a part): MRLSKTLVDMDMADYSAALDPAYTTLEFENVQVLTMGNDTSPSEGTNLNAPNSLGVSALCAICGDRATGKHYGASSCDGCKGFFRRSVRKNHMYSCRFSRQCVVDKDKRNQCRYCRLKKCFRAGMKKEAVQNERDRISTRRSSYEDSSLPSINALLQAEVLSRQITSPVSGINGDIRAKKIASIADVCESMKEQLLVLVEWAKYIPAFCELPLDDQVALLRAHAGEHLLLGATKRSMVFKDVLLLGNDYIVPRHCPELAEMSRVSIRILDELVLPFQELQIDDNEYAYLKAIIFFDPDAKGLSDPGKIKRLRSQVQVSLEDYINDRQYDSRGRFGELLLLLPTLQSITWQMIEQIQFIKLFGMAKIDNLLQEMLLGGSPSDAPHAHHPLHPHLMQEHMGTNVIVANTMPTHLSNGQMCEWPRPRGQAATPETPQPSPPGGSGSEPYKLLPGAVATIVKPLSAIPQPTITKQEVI
Sequence of Melanocortin receptor 4 (P32245 whole entry): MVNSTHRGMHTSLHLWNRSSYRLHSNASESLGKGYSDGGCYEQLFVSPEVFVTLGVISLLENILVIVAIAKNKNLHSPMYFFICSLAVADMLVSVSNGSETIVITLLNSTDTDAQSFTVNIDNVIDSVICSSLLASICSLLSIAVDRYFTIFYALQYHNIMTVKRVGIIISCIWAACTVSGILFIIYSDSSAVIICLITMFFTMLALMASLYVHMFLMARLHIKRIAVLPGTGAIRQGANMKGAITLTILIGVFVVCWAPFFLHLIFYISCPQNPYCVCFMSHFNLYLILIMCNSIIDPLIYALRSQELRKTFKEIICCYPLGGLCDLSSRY
Sequence of Cytochrome P450 2D6 (P10635 whole entry): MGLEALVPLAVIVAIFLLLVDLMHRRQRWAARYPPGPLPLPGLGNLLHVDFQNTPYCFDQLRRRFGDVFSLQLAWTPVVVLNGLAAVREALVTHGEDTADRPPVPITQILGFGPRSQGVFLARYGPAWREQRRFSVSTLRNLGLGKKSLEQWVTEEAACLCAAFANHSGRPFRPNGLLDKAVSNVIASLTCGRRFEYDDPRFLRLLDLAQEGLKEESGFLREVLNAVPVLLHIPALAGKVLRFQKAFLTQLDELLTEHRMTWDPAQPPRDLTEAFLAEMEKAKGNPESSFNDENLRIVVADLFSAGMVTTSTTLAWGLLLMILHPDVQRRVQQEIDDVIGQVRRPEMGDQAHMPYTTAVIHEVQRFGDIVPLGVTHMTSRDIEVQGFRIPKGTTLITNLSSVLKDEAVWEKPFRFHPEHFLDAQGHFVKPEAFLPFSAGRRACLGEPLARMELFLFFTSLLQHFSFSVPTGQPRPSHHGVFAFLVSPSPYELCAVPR
Sequence of Protein Wnt-3a (P27467 whole entry): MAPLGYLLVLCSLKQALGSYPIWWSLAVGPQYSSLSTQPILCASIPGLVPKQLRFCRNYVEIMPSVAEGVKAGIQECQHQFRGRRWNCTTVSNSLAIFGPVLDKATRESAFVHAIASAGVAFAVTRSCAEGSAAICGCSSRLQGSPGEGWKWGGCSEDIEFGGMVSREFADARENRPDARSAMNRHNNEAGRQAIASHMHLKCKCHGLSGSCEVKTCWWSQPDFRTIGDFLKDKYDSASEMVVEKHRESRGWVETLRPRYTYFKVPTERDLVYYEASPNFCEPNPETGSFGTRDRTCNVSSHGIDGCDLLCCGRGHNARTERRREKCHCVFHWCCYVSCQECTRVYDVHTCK
Sequence of DNA (cytosine-5)-methyltransferase 1 (P26358 whole entry): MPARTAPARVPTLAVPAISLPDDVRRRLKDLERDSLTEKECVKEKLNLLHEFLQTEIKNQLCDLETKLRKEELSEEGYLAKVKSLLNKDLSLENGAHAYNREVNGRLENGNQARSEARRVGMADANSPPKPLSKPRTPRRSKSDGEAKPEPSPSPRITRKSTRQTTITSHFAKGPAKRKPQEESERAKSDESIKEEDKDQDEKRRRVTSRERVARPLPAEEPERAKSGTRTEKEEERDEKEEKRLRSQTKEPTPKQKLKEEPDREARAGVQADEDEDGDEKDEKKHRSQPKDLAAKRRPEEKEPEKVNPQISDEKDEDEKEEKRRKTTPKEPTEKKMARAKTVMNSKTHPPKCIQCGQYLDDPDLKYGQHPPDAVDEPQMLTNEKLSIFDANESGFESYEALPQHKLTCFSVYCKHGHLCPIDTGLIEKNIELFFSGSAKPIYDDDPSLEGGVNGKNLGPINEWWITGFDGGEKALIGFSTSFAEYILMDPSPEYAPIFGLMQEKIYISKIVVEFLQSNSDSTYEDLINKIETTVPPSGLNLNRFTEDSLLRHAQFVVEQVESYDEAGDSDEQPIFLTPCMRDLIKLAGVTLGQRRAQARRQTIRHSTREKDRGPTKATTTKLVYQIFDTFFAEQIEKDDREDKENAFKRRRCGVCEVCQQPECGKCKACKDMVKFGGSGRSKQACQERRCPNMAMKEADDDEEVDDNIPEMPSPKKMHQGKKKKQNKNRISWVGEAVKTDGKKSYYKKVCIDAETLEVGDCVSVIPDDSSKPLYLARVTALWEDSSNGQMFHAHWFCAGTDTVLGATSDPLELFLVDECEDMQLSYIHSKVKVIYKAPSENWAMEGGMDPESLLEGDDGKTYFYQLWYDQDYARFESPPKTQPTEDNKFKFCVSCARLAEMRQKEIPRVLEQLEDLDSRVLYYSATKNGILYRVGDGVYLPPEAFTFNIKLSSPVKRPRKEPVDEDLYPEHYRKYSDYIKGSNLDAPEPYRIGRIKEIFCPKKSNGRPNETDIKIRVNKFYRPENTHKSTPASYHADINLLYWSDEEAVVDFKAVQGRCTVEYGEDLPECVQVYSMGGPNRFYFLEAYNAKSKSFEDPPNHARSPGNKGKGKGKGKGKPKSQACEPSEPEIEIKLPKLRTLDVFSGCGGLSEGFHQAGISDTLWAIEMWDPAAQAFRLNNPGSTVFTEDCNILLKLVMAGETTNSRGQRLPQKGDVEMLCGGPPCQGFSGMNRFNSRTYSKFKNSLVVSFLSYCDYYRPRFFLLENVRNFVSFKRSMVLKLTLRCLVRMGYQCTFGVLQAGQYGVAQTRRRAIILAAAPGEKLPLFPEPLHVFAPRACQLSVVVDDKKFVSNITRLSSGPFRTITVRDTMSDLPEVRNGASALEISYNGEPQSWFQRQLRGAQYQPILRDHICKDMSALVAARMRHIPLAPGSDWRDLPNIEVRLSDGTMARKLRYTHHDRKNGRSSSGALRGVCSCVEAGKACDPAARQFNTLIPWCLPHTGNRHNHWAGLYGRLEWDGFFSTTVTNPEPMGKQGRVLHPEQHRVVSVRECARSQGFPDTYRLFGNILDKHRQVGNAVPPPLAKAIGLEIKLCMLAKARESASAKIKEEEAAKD
Sequence of ADP-ribosylation factor GTPase-activating protein 1 (Q62848 whole entry, the tested form may be a part): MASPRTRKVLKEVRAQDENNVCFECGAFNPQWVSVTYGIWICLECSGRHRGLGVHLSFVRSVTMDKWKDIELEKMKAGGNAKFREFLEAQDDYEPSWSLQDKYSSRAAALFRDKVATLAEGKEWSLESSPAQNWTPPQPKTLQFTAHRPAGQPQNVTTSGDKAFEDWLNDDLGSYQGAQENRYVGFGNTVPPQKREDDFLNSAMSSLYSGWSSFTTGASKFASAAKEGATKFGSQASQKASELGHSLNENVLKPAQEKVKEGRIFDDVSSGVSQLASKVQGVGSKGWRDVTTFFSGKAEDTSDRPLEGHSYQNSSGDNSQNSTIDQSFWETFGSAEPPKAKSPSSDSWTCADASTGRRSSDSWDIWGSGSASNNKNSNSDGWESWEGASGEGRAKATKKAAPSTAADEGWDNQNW
Sequence of Photoreceptor-specific nuclear receptor (Q9Y5X4 whole entry, the tested form may be a part): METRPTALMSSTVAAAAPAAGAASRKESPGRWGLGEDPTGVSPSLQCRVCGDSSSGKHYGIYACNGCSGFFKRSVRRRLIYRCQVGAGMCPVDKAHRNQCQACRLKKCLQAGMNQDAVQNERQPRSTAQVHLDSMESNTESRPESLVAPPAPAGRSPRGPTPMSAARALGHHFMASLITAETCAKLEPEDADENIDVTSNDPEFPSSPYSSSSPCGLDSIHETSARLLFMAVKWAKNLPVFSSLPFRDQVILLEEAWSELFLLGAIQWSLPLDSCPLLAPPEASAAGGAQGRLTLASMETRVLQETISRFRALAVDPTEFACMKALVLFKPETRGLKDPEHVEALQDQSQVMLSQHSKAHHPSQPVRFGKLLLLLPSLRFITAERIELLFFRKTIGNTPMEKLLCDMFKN

Q: Which EC50 [1] does the source give for `CN(CC(=O)Nc1ccccc1N1CCOCC1)S(=O)(=O)c1ccc(Cl)cc1` here?
A: > 104 µM (inactive)

Q: What does the source list for `O=C(N/N=C/c1sc(=O)n(Cc2ccc(Br)cc2)c1Cl)c1ccco1`?
A: IC50 [2]: 34.3 µM (inactive); IC50 [3]: 3.55 µM (active)

Q: Which EC50 [4] does the source give for `CCCOC(=O)c1cccc(Nc2nc(-c3cccnc3)nc3ccccc23)c1` here?
A: > 40 µM (inactive)

Q: And the EC50 [5]?
A: 9.22 µM (active)

Q: What about the EC50 [6] of the same molecule?
A: 0.534 µM (active)

Q: And the IC50 [7]?
A: > 20 µM (inactive)

Q: What about the EC50 [8] of the same molecule?
A: > 89.3 µM (inactive)

Q: Which results are given for `N#Cc1ccc(-c2nc3ccc(Cl)cn3c2Cc2ccccc2C(F)(F)F)cc1`?
A: IC50 [9]: 9.87 µM (active); IC50 [10]: 8.47 µM (active)

Q: For `O=C1c2cccc3cccc(c23)C(=O)N1CCCCCc1nnc(S)o1`, which AC50 [11] is on record?
A: 102 µM (active)

Q: For `Nc1nc(CN2CCCCCC2)nc(Nc2ccccc2)n1`, which AC50 [12] is on record?
A: 133 µM (active)

Q: Which IC50 [13] does the source give for `Cc1cccc(C)c1NC(=O)C(c1cccc2ccccc12)n1c(=O)c(-c2ccco2)nc2ccccc21` (stereo not drawn) here?
A: 2.56 µM (active)

Q: For `O=c1c2ccccc2nc2n1C(CSCc1cccc(C(F)(F)F)c1)CS2` (stereo not drawn), which AC50 [14] is on record?
A: 7.08 µM (inconclusive)

Q: And the AC50 [15]?
A: 0.863 µM (active)

Q: And the IC50 [16]?
A: 2.01 µM (active)

Q: And the AC50 [17]?
A: 3.22 µM (active)

Q: And the AC50 [18]?
A: 1.68 µM (active)

Q: With `c1ccc2c(c1)c1c(c3ccccc32)CN2CCCC2C1` (stereo not drawn) as the molecule, how does the CC50 [19] read?
A: 100 µM (active)

Q: What about the IC50 [20] of the same molecule?
A: > 99 µM (inactive)

Q: What about the IC50 [21] of the same molecule?
A: 111 µM (active)

Q: For `Cc1ccc(C(=O)N/N=C/C=C/c2ccccc2)o1`, which IC50 [22] is on record?
A: 134 µM (inactive)

Q: Which IC50 [23] does the source give for `CC(C)(C)N1CC(c2nc3ccccc3n2Cc2ccc(Cl)cc2)CC1=O` (stereo not drawn) here?
A: 1.23 µM (active)

Q: With `CCN(c1ccccc1)S(=O)(=O)c1ccc(C(=O)Nc2nnc(CSC)o2)cc1` as the molecule, how does the EC50 [24] read?
A: 15 µM (active)

Q: And the IC50 [25]?
A: 8.64 µM (active)

Q: What about the EC50 [26] of the same molecule?
A: 3.5 µM (active)

Q: What about the EC50 [27] of the same molecule?
A: > 150 µM (not active)

Q: For `CCCCn1c(O)c(/N=N/c2ccccn2)c2ccccc21`, which EC50 [28] is on record?
A: 23.9 µM (inactive)
